Reference: US20220370381A1 (priority 2016, published 2022)

Experiments:
[1] = molecular target: hNav1.5 (Homo sapiens, UniProt Q14524); assay: Ion channel profiling, IonFlux HT automated patch clamp, hNav1.5
[2] = test system: DBA/1 mice; assay: Audiogenic seizures (AGSz) in DBA/1 mice; format: in vivo, mouse
[3] = test system: Sigma non-selective; assay: Competitive radioligand binding assay, sigma non-selective; parameters: species or system Guinea pig; settings: test article 1×10^−6 and 1×10^−5 mol/L; guinea pig brain
[4] = test system: CRL NMRI mice; assay: Mouse 6-Hz model of refractory seizures; format: in vivo; settings: 5.0 or 20.0 mg/kg i.p.
Method: The 6 Hz mouse model is a model system used to assess the efficacy of putative anti-seizure medications for refractory epilepsies generally, without regard to type.
The efficacy of FA in the mouse 6-Hz model was assessed by behavioral characterization after intraperitoneal injection of CRL NMRI mice (30-35 g) with VHC (50/50 DMSO/PEG200) or FA (5.0 or 20.0 mg/kg). Animals were placed in one of three treatment groups: vehicle (n=10), FA 5 mg/kg (n=6) and FA 20 mg/kg (n=6). Seizures were transcorneal-induced 1 h after injection (6-Hz, 0.2 ms pulse width, 44 mA).

[5] = test system: T1, β-Adrenergic (Non-selective); assay: Competitive radioligand binding assay, β-adrenergic (non-selective); parameters: species or system Rat; settings: test article 1×10^−6 and 1×10^−5 mol/L; rat brain
T1 construct: β-1 adrenergic; other: test article 1×10^−6 and 1×10^−5 mol/L; rat brain

[6] = test system: homozygous scn1Lab−/− mutant zebrafish; assay: Locomotor (behavioral) assay in homozygous scn1Lab−/− mutant zebrafish larvae (Dravet syndrome model); format: in vivo; settings: 25, 50 or 100 μM for 24 h, 6 dpf larvae; p<0.05 vs. VHC
Method: ZF larvae were treated on 6 dpf with vehicle (VHC, 0.1% dimethyl sulfoxide, DMSO, or FA (25, 50 or 100 μM) for 24 h. Thereafter, the locomotor activity (behavior) was monitored by an automated tracking device. Subsequently, forebrain local field potentials and forebrain activity (LFPs, brain activity) were measured to confirm anticonvulsant effects of FA treatment, if indicated by the behavioral assays.

[7] = molecular target: T2, serotonin 5-HT1A (Rattus norvegicus, UniProt P19327); assay: Competitive radioligand binding assay, serotonin 5-HT1A
T2 construct: serotonin 5-HT1A (rat cerebral cortex); from tissue; host or cells: rat cerebral cortex
T2 sequence (P19327 1-422): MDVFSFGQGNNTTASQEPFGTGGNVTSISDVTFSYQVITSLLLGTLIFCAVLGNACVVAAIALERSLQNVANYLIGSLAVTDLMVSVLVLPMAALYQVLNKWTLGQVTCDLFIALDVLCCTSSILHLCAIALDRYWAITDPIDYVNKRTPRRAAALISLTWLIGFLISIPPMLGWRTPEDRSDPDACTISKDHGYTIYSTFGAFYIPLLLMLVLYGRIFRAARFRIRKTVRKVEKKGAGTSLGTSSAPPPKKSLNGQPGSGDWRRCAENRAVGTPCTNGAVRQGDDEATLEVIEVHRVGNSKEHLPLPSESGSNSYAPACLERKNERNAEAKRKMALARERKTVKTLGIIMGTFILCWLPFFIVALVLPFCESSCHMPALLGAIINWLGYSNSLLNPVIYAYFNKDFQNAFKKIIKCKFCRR

[8] = test system: wild-type zebrafish (ZF) larvae; assay: PTZ-induced seizures in wild-type zebrafish larvae, behavioral (locomotor) assay; format: in vivo; settings: wt zebrafish; p>0.05 vs. VHC+PTZ
[9] = molecular target: Sigma 1 (Cavia porcellus, UniProt Q60492); assay: Sigma-1 receptor tissue bioassay, guinea pig vas deferens, antagonist activity ((+)SKF-10047-induced response); parameters: Segments of guinea pig vas deferens were suspended in 20-ml organ baths; from tissue; host or cells: guinea pig vas deferens
Sequence of Sigma 1 (Q60492 whole entry): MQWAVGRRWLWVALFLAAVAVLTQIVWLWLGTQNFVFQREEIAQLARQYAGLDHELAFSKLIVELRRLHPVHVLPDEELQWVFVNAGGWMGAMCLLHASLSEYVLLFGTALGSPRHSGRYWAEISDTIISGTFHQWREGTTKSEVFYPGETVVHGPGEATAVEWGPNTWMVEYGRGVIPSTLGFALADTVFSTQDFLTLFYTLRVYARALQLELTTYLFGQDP

[10] = test system: Swiss OF-1 mice; assay: Spontaneous alternation in the Y-maze, dizocilpine-induced deficit; format: in vivo, mouse
[11] = test system: Swiss OF-1 mice; assay: Step-through passive avoidance, dizocilpine-induced deficit; format: in vivo, mouse
[12] = test system: T3, Na channel; assay: Competitive radioligand binding assay, Na channel; parameters: species or system Rat; settings: test article 1×10^−6 and 1×10^−5 mol/L; rat brain
T3 construct: other: test article 1×10^−6 and 1×10^−5 mol/L; rat brain

[13] = test system: DBA/1 mice; assay: Seizure-induced respiratory arrest (S-IRA) in DBA/1 mice; format: in vivo, mouse
[14] = dizocilpine […], most active doses 0.3 and 1 mg/kg IP

Sequence of hNav1.5 (Q14524 whole entry): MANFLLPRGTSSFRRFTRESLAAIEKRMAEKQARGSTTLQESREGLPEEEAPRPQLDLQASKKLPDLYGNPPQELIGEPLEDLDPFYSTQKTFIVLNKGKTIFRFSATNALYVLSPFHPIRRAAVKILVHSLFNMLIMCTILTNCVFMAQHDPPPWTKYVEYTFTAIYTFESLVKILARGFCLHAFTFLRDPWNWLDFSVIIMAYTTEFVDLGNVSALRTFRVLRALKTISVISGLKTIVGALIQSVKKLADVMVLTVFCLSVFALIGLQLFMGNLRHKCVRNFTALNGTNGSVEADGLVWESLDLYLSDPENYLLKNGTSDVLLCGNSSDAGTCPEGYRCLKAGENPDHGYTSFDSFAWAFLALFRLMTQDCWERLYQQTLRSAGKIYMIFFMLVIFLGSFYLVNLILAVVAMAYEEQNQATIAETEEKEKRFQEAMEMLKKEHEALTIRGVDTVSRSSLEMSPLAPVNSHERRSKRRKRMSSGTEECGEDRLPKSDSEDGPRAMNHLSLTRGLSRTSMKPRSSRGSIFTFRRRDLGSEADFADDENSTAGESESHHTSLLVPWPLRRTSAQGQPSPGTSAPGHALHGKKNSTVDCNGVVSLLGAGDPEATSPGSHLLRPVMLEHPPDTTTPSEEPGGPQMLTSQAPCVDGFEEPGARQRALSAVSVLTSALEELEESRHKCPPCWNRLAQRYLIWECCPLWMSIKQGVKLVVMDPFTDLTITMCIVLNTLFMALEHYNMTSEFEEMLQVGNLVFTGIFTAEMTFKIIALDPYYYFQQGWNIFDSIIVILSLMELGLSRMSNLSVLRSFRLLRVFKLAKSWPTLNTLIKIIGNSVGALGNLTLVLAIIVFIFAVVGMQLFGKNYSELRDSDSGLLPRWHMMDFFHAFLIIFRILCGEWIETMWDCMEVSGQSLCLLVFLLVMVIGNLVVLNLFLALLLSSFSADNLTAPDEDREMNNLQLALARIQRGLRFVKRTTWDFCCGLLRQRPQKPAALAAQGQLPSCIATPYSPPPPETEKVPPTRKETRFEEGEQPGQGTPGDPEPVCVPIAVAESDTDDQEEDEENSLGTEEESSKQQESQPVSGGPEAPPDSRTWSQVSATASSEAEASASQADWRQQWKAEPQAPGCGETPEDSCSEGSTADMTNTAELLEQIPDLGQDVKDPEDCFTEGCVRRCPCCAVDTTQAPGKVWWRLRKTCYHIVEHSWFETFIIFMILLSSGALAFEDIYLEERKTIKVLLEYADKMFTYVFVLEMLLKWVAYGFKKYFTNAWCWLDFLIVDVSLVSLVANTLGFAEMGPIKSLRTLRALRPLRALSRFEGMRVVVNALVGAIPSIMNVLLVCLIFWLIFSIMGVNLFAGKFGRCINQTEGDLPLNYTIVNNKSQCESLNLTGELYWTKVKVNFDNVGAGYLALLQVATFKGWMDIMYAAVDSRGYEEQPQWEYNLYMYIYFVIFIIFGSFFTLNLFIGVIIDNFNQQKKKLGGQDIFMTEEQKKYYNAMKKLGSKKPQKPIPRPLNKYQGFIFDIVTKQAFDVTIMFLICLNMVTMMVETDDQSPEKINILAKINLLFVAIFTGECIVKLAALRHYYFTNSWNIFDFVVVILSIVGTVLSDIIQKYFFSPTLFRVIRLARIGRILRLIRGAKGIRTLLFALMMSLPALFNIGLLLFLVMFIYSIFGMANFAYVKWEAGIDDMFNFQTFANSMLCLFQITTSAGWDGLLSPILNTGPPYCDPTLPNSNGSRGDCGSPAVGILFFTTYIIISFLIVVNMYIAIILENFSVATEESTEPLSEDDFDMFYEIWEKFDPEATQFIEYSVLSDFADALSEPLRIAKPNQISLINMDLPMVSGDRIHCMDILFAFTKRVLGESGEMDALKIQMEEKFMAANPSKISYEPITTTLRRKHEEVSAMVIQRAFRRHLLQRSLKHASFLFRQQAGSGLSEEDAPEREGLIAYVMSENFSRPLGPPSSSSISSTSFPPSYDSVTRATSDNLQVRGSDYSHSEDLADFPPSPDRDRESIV

`CCNC(C)Cc1cccc(C(F)(F)F)c1` (racemic) [fenfluramine, (RS)—N-ethyl-1-[3-(trifluoromethyl)phenyl]propan-2-amine] was tested, and the IC50 [1] was > 30000 nM, the seizure severity ([2]; 15 mg/kg, at 16h, p<0.05) was “significantly reduced seizure severity” and the “time at which seizure susceptibility returned” value ([2]; 40 mg/kg) was 48 h. For the same molecule, the seizures ([2]; 40 mg/kg, at 30 min, p<0.001) was “completely blocked seizures”, the ED50 ([2]; Mus musculus, ip, 0.5 h, i.p., at 30 min, read-out: ED50, blockade of susceptibility to audiogenic seizures (AGSz)) was 31 mg/kg and the “ED50, blockade of susceptibility to audiogenic seizures (AGSz)” value ([2]; i.p., at 30 min, listed as FFA) was 21.4 mg/kg. The “inhibition of receptor binding (tracer)” value [3] was “significantly inhibit”, the “period of post-seizure aggression” value [4] was “did not” and the “seizures in the mouse 6-Hz model” value ([4]; 1 h before 6-Hz 44 mA stimulation, p<0.05 vs. VHC) was “significantly reduced seizures”. The “inhibition of receptor binding (tracer)” value [5] was “significantly inhibit”, the “epileptiform behavior (locomotor activity)” value [6] was “significantly decreased” and the IC50 [7] was 573 nM. The Ki [7] was 327 nM, the “inhibition of receptor binding (tracer)” value ([7]; test article 1×10^−6 and 1×10^−5 mol/L, rat cerebral cortex) was “significantly inhibit” and the “antiseizure effect on PTZ-induced seizures” value [8] was “no observable antiseizure effects”. For the same molecule, the “behaviour at the sigma receptor (mode of action)” value ([9]; conclusion from guinea pig vas deferens tissue bioassay) was “positive allosteric modulators”, the “effect on the (+)SKF-10,047-induced increase in twitch contraction amplitude” value ([9]; field-stimulated guinea pig vas deferens, (+)SKF-10047 100 μM) was “slightly increased” and the “dizocilpine-induced deficit of spontaneous alternation” value [10, 14] was “significantly attenuated”. The “interaction with PRE-084 (sigma-1 receptor behaviour in vivo)” value ([10]; fenfluramine at maximal inactive dose (0.1), Y-maze and passive avoidance data) was “behaves as a sigma-1 receptor PAM”, the “dose attenuating dizocilpine-induced deficit in passive avoidance response (minimal active dose)” value ([11]; IP, 0.1 mg/kg not active) was 0.3 mg/kg and the “dizocilpine-induced deficit of passive avoidance learning” value [11, 14] was “significantly attenuated”. The “inhibition of receptor binding (tracer)” value [12] was “significantly inhibit”, the “effect on seizures and S-IRA” value ([13]; 5 mg/kg) was “ineffective” and the S-IRA ([13]; 15 mg/kg, at 16h, p<0.001) was “selective S-IRA blocking effect”. For the same molecule, the “time at which S-IRA susceptibility returned” value ([13]; 40 mg/kg) was 72 h, the “S-IRA incidence and seizure severity” value ([13]; 10-20 mg/kg, at 8h) was “reduction in S-IRA incidence and seizure severity” and the “S-IRA susceptibility and seizure severity” value ([13]; 10 and 15 mg/kg, at 12h) was “significantly (p<0.01) reduced S-IRA susceptibility and seizure severity”. The ED50 ([13]; Mus musculus, ip, 0.5 h, read-out: ED50, blockade of seizure-induced respiratory arrest (S-IRA)) was 18.6 mg/kg and the “time by which susceptibility to seizure and S-IRA returned” value ([13]; time course study, 5-20 mg/kg) was ≤ 48 h.
